Values joined by “and” are separate entries in the source; they are usually repeats but may differ in a detail not shown here. Equal values may be shown once. Read-outs that look alike come from different tables or passages of the source.
Experiments:
MAO A [1] = target: T1, MAO A (Homo sapiens, UniProt P21397); test: MAO A FEH competition assay in human HC brain homogenate; assay type: binding; details: human healthy control brain homogenate; FEH competition
T1 construct: 20 μg of human brain homogenate (without AD pathology); from tissue; host or cells: human brain homogenate without AD pathology (healthy control)
T1 sequence (P21397 1-527): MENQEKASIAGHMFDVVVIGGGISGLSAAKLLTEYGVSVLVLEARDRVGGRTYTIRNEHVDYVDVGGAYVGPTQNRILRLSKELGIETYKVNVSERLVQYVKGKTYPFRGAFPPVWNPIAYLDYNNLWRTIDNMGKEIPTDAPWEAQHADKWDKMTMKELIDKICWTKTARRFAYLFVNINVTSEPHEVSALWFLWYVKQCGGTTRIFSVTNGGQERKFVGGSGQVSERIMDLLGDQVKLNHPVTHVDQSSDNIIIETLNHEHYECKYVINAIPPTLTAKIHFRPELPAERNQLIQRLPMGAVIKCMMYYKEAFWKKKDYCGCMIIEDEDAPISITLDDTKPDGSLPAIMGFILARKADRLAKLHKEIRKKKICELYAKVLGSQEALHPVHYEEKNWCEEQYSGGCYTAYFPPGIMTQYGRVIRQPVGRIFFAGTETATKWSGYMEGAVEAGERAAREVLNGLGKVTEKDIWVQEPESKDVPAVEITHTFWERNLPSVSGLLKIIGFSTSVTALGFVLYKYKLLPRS
Protocol: (§1) 20 μg of human brain homogenate (without AD pathology) was incubated with a dilution series of each test compound (1000 to 0.06 nM) in the presence of 800 Bq of ^18F-labeled MAO-A binder ([^18F]fluoroethyl harmine, FEH). The samples were shaken at 110 rpm for 45 min at 37° C. Samples were then filtered through GF/B 96 well filter plates and washed twice with 300 μL assay buffer (PBS containing 0.1% BSA and 2% DMSO). Thereafter, filter plates were sealed and a Fuji Film Imaging Plate (BAS-SR2025) was placed on top. The imaging plate was analyzed after overnight exposition using a Fuji Film BAS-5000. Non-specific signal was determined with samples containing ^18F-labeled FEH in the presence of assay buffer without brain substrate and competitor. […] The unblocked ^18F-labeled FEH signal was defined as total binding. IC50 values were calculated by Prism V6 (GraphPad) setting total binding to 100%.

amyloid-beta = amyloid-beta (Homo sapiens, UniProt P05067); test: Binding affinity to amyloid-beta in AD brain homogenate; details: human AD brain homogenate; non-radioactive derivatives
Chain of amyloid-beta (P05067 672-711 limits assumed): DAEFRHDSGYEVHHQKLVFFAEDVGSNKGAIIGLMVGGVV
Protocol: as §1, with “human Alzheimer disease” for “human”, “homogenate” for “homogenate (without AD pathology)”, “beta-amyloid binder.” for “MAO-A binder ([^18F]fluoroethyl harmine, FEH).”, “beta-amyloid binder” for “FEH”

[2] = PK studies in healthy mice (PET); assay type: in vivo, NMRI mice; details: 18F tracer; for Mouse PK De-fluorination: bone uptake, footnote f: no de-fluorination detected; for Mouse PK Uptake: brain; for Mouse PK Washout: ratio of uptake peak/30 min
Protocol: NMRI mice (weight range 25-35 g) were injected intravenously with the ^18F-labeled compounds. Up to 150 μL of 1×PBS solution with 10%-15% EtOH or dilution medium ([…]) containing the ^18F-labeled compound (2-10 MBq) were injected. Anesthesia with isoflurane was induced before injection of the tracer and maintained during the image acquisition period. PET scans were performed using a SIEMENS INVEON small animal PET/CT scanner (Siemens, Knoxville, Tenn.). PET acquisition was started immediately before the radioactive dose was injected into the animal through the tail vein. Images were generated as dynamic scans for 60 minutes.
The peak uptake in the brain was set to 100% and washout curves were generated to evaluate the clearance of the activity from the normal brain (FIG. 2).

Tau = Tau (Homo sapiens, UniProt P10636); test: Tau competition binding in human AD brain homogenate with 18F-labeled Tau binder; details: for Binding affinity for Tau (in words): IC50 determined in AD brain homogenate, compared with 3a
Chain of Tau (P10636 623-708 limits assumed): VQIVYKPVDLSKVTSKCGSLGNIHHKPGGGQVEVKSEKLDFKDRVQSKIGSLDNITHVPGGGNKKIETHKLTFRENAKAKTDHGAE
Protocol: 20 μg of human Alzheimer disease brain homogenate was incubated with a dilution series of each test compound (1000 to 0.06 nM) in the presence of 800 Bq of ^18F-labeled Tau binder. The samples were shaken at 110 rpm for 45 min at 37° C. Samples were then filtered through GF/B 96 well filter plates and washed twice with 300 μL assay buffer (PBS containing 0.1% BSA and 2% DMSO). Thereafter, filter plates were sealed and a Fuji Film Imaging Plate (BAS-SR2025) was placed on top. The imaging plate was analyzed after overnight exposition using a Fuji Film BAS-5000. Non-specific signal was determined with samples containing ^18F-labeled Tau-reference binder in the presence of assay buffer without brain substrate and competitor. […] The unblocked ^18F-labeled Tau-binder signal was defined as total binding. IC50 values were calculated by Prism V6 (GraphPad) setting total binding to 100%.

MAO A [3] = target: T2, MAO A (Mus musculus, UniProt Q64133); test: MAO A 18F-FEH competition assay in mouse brain homogenate; assay type: binding; details: for Selectivity over MAO A (in words): compared with 3a
T2 construct: from tissue; host or cells: whole mouse brain homogenate
T2 sequence (Q64133 1-526): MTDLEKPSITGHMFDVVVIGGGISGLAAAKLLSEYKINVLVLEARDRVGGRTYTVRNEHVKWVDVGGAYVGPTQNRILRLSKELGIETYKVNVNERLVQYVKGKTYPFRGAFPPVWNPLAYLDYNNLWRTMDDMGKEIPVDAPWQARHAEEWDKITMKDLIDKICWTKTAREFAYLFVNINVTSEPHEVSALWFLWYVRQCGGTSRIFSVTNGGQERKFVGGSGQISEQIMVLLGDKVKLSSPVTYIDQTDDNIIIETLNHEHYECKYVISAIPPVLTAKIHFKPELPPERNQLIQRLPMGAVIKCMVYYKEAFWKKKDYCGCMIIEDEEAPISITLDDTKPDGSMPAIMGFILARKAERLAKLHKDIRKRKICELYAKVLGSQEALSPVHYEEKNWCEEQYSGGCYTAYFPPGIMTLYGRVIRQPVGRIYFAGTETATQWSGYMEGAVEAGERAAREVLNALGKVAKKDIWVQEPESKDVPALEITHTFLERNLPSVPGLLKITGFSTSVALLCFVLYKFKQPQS

MAO B = target: T3, MAO B (Homo sapiens, UniProt P27338); test: MAO B 18F-fluoro deprenyl competition assay in human HC brain homogenate; assay type: binding
T3 construct: 20 μg of human brain homogenate (without AD pathology); from tissue; host or cells: human brain homogenate without AD pathology (healthy control)
T3 sequence (P27338 1-520): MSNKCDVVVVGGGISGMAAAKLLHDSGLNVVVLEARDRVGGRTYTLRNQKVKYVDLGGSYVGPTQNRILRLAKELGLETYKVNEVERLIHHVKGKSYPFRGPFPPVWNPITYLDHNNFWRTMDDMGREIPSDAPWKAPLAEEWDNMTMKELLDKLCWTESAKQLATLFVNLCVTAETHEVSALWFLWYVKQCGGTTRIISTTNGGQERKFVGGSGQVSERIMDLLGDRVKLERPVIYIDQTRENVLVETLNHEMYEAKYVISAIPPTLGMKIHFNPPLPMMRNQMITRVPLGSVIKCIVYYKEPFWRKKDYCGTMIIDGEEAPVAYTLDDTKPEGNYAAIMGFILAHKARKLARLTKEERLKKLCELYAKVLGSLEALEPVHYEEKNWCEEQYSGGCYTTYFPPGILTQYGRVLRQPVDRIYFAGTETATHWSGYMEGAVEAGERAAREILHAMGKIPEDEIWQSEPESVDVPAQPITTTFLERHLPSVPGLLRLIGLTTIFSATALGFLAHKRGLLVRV
Protocol: The samples were shaken at 110 rpm for 45 min at 37° C. Samples were then filtered through GF/B 96 well filter plates and washed twice with 300 μL assay buffer (PBS containing 0.1% BSA and 2% DMSO). Thereafter, filter plates were sealed and a Fuji Film Imaging Plate (BAS-SR2025) was placed on top. The imaging plate was analyzed after overnight exposition using a Fuji Film BAS-5000. […] IC50 values were calculated by Prism V6 (GraphPad) setting total binding to 100%.

[4] = IC50 in AD brain homogenate, non-radioactive fluorine-19 derivatives, read-out: high Tau binding
[5] = grade, AD brain homogenate, non-radioactive fluorine-19 derivatives, read-out: high Tau binding
[6] = human AD brain homogenate, determined with non-radioactive F-1, F-2, F-3a, read-out: IC50 for tau binding in AD brain homogenate
[7] = 18F-FEH competition, non-radioactive derivatives, read-out: IC50 MAO A in mouse brain homogenate
[8] = IC50 in mouse brain homogenate, fluorine-19 derivatives, read-out: low MAO A binding
[9] = grade, IC50 in mouse brain homogenate, fluorine-19 derivatives, read-out: low MAO A binding

Row | Structure (SMILES) | IC50 (MAO A [1]) | IC50 (amyloid-beta) [nM] | Mouse PK De-fluorination [2] | Mouse PK Uptake [2] | Mouse PK Washout [2] | IC50 (Tau; [4]) [nM] | IC50 (Tau; [5]) [nM] | IC50 (Tau; [6]) [nM] | IC50 (MAO A [3]; [7]) [nM] | Selectivity over MAO A (in words) (MAO A [3]) | IC50 (MAO A [3]; [8]) [nM] | IC50 (MAO A [3]; [9]) [nM] | Binding affinity for Tau (in words) (Tau) | IC50 (MAO B) [nM] | IC50 (MAO A [3]; low MAO A binding [nM], IC50 in mouse brain homogenate, fluorine-19 derivatives) [nM] | IC50 (MAO A [3]; low MAO A binding, grade, IC50 in mouse brain homogenate, fluorine-19 derivatives) [nM]
1 | Fc1ccnc(-c2ccc3c(n2)[nH]c2ccncc23)c1 [Example F-9] |  |  |  |  |  | 8.4 |  |  |  |  | > 1000 | > 1000 | inferior |  |  | 
2 | Fc1cccc(-c2ccc3c(n2)[nH]c2ccncc23)n1 [Example F-7] |  |  | (11.1% ID/g) | (8.5% ID/g) | (7.0) | 7.1 |  |  |  | Inferior | 268 |  | inferior |  |  | 
3 | Fc1ccc(-c2ccc3c(c2)[nH]c2ccncc23)cn1 [Example F-1] | 5 nM | > 1000 |  |  |  |  |  | < 2 | 22 |  |  |  |  | 170 |  | 
4 | Fc1ccc(-c2ccc3c(n2)[nH]c2ccncc23)nc1 [Example F-8] |  |  |  |  |  | < 5 | < 5 |  |  | Inferior | 75 |  |  |  |  | 
5 | Fc1cccnc1-c1ccc2c(n1)[nH]c1ccncc12 [Example F-10] |  |  | (6.2% ID/g) | (2.1% ID/g) | (3.6) | 103 |  |  |  |  |  |  | poor |  | > 1000 | > 1000
6 | Fc1ccncc1-c1ccc2c(n1)[nH]c1ccncc12 [Example F-6] |  |  | (4.8% ID/g) | (8.2% ID/g) | (14.5) | 43 |  |  |  |  | > 1000 | > 1000 | poor |  |  | 

The next lines start with results.

Row | IC50 (MAO A [1]) | IC50 (amyloid-beta) [nM] | Mouse PK De-fluorination [2] | Mouse PK Uptake [2] | Mouse PK Washout [2] | IC50 (Tau; [4]) [nM] | IC50 (Tau; [5]) [nM] | IC50 (Tau; [6]) [nM] | IC50 (MAO A [3]; [7]) [nM] | Selectivity over MAO A (in words) (MAO A [3]) | IC50 (MAO A [3]; [8]) [nM] | IC50 (MAO A [3]; [9]) [nM] | Binding affinity for Tau (in words) (Tau) | IC50 (MAO B) [nM] | Structure (SMILES) | IC50 (MAO A [3]; low MAO A binding [nM], IC50 in mouse brain homogenate, fluorine-19 derivatives) [nM] | IC50 (MAO A [3]; low MAO A binding, grade, IC50 in mouse brain homogenate, fluorine-19 derivatives) [nM]
7 | 100 nM | > 1000 | (6.2% ID/g) | (5.7% ID/g) | (10.9) | < 5 | < 5 | < 2 | 475 | Inferior |  |  |  |  | Fc1ccc(-c2ccc3c(n2)[nH]c2ccncc23)cn1 [Example F-2] |  | 
8 | 1100 nM and 530 nM | > 1000 | (<0.5% ID/g)^f | (4.4-5.9% ID/g) ^ | (11.2-16.6) | < 5 | < 5 | < 2 | 1400 |  | > 1000 | > 1000 |  |  | Fc1cc(-c2ccc3c(n2)[nH]c2ccncc23)ccn1 [Example F-3a] |  | 
9 |  |  |  | (4.0% ID/g) | (19.4) | < 5 | < 5 |  |  |  | 765 |  |  |  | Fc1cnccc1-c1ccc2c(n1)[nH]c1ccncc12 [Example F-3b] |  | 
10 |  |  | (2.9% ID/g) | (5.3% ID/g) | (9.6) | 6.3 |  |  |  |  | > 1000 | > 1000 | inferior |  | Fc1cncc(-c2ccc3c(n2)[nH]c2ccncc23)c1 [Example F-5] |  | 
